# According to patent US10092563B2, “Phosphatidylinositol 3-kinase inhibitors” (Gilead Sciences, Inc., priority 2014, dated 2018):
# Tests used:
# Assay in all cases: TR-FRET enzymatic assay of PI3K isoforms
# Type in all cases: biochemical
# PI3Kβ = PI3Kβ (Homo sapiens (Human), UniProt P42338); settings: for PI3Kγ/PI3Kβ ratio: ratio of IC50 PI3Kγ to IC50 PI3Kβ (fold)
# Protocol: (§1) The compounds of formula (I) were characterized for their enzymatic activity against the PI3K isoforms. The activities were measured using a time-resolved fluorescence resonance energy transfer (TR-FRET) assay.
# PI3Kγ = PI3Kγ (Homo sapiens (Human), UniProt P48736); settings: 2× Km ATP, 30 minutes at 25° C.
# Protocol: as §1
# PI3Kδ = PI3Kδ (Homo sapiens (Human), UniProt O00329); settings: 2× Km ATP, 30 minutes at 25° C.
# Protocol: as §1
# Sequence of PI3Kγ (P48736 whole entry): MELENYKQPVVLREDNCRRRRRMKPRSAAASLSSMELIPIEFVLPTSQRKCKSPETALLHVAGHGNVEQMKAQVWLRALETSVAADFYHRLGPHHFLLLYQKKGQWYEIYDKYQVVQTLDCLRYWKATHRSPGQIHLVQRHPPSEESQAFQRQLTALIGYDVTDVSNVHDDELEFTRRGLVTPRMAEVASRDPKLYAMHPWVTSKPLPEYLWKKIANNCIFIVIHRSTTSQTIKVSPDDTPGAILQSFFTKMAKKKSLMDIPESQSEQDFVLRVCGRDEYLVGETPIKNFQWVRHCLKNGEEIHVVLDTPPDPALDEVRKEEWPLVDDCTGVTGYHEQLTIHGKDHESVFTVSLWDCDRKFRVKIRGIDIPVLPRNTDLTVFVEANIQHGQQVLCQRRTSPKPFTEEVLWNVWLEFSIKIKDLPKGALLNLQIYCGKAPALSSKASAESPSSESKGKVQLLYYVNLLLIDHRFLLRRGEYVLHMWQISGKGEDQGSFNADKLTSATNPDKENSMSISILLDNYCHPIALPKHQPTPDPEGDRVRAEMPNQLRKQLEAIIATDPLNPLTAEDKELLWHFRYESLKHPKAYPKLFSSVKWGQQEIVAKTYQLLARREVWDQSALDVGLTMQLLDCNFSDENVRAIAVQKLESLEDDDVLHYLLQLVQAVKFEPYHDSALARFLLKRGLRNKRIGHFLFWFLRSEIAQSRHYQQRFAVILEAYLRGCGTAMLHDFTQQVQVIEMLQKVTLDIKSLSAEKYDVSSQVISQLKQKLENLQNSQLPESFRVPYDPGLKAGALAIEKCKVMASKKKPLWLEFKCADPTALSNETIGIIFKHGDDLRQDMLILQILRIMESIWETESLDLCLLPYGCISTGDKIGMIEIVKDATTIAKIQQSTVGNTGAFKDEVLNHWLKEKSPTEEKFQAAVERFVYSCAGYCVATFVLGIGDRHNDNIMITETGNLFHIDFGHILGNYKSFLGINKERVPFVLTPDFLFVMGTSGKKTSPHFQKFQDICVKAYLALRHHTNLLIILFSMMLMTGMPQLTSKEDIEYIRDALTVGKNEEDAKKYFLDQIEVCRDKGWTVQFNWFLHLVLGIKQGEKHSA
# Sequence of PI3Kγ (Q8WYR1 whole entry partner): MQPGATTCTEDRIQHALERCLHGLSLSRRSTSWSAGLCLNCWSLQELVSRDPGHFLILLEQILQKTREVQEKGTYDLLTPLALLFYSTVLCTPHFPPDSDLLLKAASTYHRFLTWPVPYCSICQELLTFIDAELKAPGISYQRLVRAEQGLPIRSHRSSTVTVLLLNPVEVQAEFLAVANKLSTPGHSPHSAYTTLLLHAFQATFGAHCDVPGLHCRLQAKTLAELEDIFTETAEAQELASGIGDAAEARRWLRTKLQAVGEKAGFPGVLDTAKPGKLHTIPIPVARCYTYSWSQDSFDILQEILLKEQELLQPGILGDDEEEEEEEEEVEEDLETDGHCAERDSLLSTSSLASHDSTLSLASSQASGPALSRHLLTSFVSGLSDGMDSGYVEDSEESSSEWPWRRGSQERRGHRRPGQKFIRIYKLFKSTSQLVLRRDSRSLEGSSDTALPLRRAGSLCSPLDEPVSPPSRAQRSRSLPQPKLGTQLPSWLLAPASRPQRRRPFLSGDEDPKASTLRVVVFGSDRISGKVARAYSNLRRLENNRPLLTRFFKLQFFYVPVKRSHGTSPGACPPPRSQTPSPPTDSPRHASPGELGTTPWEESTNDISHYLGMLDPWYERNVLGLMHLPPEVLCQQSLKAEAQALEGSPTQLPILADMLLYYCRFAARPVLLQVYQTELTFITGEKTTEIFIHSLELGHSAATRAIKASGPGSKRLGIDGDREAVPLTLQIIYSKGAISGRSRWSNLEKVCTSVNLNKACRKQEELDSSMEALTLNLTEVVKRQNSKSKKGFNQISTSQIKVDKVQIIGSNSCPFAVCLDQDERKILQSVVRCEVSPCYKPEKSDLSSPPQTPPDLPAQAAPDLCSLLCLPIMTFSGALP
# Sequence of PI3Kδ (O00329 whole entry): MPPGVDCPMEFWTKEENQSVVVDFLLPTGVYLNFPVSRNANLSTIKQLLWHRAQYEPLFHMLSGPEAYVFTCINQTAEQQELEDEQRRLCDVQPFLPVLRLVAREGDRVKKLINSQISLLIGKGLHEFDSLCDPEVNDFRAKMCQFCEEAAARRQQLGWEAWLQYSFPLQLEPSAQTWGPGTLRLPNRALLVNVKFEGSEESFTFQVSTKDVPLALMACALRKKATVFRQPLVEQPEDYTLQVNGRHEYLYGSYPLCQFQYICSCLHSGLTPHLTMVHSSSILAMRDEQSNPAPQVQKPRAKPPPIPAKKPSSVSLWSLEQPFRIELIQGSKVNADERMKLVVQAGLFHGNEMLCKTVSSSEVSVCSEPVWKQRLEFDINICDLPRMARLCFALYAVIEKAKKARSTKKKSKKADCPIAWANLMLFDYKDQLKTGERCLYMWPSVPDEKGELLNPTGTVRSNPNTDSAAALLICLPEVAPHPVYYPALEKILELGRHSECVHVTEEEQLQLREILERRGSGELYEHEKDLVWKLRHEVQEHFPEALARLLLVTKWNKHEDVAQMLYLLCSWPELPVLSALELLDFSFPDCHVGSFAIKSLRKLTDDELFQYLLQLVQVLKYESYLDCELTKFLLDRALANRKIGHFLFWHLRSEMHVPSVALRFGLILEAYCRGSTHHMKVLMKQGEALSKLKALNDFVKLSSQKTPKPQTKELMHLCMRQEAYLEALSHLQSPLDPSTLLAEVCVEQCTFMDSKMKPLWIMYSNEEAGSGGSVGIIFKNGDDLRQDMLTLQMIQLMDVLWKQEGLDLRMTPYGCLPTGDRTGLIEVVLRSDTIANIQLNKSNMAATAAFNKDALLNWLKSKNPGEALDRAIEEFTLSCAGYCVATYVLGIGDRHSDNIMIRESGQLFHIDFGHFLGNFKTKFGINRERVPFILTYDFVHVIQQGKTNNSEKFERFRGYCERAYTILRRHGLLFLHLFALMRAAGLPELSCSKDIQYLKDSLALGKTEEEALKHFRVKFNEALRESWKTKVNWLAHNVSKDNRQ
# Sequence of PI3Kδ (P27986 whole entry partner): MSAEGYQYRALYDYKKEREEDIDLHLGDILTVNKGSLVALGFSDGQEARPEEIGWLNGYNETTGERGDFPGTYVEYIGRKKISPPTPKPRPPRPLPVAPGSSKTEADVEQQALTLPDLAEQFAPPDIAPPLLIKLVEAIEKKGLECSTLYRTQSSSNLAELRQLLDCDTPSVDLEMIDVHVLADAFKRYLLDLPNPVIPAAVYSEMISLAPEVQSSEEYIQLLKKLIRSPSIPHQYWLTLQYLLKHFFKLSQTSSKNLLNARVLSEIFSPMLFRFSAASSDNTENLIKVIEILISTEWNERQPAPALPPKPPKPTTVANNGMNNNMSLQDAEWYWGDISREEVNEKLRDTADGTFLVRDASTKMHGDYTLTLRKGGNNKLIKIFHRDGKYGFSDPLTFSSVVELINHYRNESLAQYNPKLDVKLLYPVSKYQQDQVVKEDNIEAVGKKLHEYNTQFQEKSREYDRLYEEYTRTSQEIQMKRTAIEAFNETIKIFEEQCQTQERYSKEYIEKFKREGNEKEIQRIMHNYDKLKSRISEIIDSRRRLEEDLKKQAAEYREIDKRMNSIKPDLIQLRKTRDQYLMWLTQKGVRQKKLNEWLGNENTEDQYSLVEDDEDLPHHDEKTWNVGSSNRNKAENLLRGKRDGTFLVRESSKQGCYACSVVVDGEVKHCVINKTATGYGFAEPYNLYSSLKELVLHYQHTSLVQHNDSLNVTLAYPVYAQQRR
# Sequence of PI3Kβ (P42338 whole entry, canonical isoform): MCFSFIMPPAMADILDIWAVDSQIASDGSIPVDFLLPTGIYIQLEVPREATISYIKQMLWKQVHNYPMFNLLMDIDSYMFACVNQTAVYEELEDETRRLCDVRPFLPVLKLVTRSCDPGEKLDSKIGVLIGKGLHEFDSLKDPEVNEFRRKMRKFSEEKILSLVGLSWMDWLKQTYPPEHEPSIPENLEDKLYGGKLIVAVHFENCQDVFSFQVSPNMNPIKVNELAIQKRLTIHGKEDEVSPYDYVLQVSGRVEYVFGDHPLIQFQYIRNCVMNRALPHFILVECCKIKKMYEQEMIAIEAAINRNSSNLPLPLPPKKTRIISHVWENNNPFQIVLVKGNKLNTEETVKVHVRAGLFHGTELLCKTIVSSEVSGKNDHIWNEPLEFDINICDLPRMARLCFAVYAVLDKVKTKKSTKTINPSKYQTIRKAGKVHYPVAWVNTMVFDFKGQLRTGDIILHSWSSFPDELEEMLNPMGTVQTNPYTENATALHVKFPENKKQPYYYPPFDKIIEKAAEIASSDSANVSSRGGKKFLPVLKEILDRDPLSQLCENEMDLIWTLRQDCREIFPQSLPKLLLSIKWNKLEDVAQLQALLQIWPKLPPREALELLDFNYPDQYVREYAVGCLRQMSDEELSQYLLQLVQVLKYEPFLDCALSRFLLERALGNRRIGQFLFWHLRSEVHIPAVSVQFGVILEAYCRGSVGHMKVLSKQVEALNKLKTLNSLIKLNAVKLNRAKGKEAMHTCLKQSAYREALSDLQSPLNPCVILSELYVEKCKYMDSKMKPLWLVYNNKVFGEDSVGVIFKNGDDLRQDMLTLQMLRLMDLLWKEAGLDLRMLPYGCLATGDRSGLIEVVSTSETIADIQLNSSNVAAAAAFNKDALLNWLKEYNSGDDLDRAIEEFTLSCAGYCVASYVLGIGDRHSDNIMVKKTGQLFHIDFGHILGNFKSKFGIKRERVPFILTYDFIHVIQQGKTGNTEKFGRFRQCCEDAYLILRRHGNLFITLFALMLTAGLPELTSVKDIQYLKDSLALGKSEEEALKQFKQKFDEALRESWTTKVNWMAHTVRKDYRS
# Sequence of PI3Kβ (P27986 whole entry partner, canonical isoform): as the sequence (P27986 whole entry partner) above
SMILES,IC50 (PI3Kβ) [nM],IC50 (PI3Kγ) [nM],IC50 (PI3Kδ) [nM],PI3Kγ/PI3Kβ ratio (PI3Kβ),"PI3Kγ/PI3Kβ ratio (PI3Kβ; listed as (S)-2,4-diamino-6-(1-(5-chloro-4-oxo-3-phenyl-3,4-dihydroquinazolin-2-yl)ethyl))"
"Cc1nc(N)nc(N[C@@H](C)c2nc3c(F)ccc(Cl)c3c(=O)n2C2[C@H]3CNC[C@@H]23)c1C#N (stereo partly drawn) [Compound 16, 4-(((1S)-1-(3-((1R,5S)-3-azabicyclo[3.1.0]hexan-6-yl)-5-chloro-8-fluoro-4-oxo-3,4-dihydroquinazolin-2-yl)ethyl)amino)-2-amino-6-methylpyrimidine-5-carbonitrile]",2,2600,6,–,–
"C[C@H](Nc1nc(N)nc(N)c1C#N)c1nc2c(F)ccc(Cl)c2c(=O)n1C1[C@H]2CNC[C@@H]12 (stereo partly drawn) [Compound 17, 4-(((1S)-1-(3-((1R,5S)-3-azabicyclo[3.1.0]hexan-6-yl)-5-chloro-8-fluoro-4-oxo-3,4-dihydroquinazolin-2-yl)ethyl)amino)-2,6-diaminopyrimidine-5-carbonitrile]",3,2800,4,–,–
"C[C@H](Nc1nc(N)nc(N)c1C#N)c1nc2cccc(Cl)c2c(=O)n1-c1ccccc1 [Compound X, (S)-2,4-diamino-6-((1-(5-chloro-4-oxo-3-phenyl-3,4-dihydroquinazolin-2-yl)ethyl)amino)pyrimidine-5-carbonitrile, reference compound]",–,–,–,0.6,less than 1
"C[C@H](Nc1nc(N)nc(N)c1C#N)c1nc2cccc(Cl)c2c(=O)n1[C@@H]1CCCNC1 [Compound 27, 2,4-diamino-6-(((S)-1-(5-chloro-4-oxo-3-((R)-piperidin-3-yl)-3,4-dihydroquinazolin-2-yl)ethyl)amino)pyrimidine-5-carbonitrile]",–,> 10000,830,–,–
